Where a name gives a salt, the structure may show the parent alone.
Tests used:
[1] = target: T1, PIM1 serine/threonine kinase (Homo sapiens, UniProt P11309); assay: PIM1 serine/threonine kinase inhibitory effect; type: biochemical; conditions: PIM1 serine/threonine kinase activity; ATP 40 μM; 30° C., 30 minutes
T1 construct: purchased Carna Bioscience, Inc
Method in brief: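 Compounds were tested in duplicate from 0.01 to 10000 nM final against PIM1 kinase (0.15 μg/ml). The reaction ran for 30 minutes at 30° C with 40 μM ATP and 0.5 μM biotin-tagged substrate at pH 7.0. Phosphorylation was read by time-resolved FRET (OD665/OD620) after 1 h; IC50 by non-linear fit.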

[2] = target: PIM1 transgenic cells (Ba/F3) (Homo sapiens, UniProt P11309); assay: Proliferation inhibitory effect on PIM1 transgenic cells; type: cell-based, mouse; conditions: proliferation inhibition, 72 hours, Cell Counting Kit-8, read-out: PIM1 IC50
PIM1 transgenic cells (Ba/F3), sequence (P11309 whole entry, stated change not applied): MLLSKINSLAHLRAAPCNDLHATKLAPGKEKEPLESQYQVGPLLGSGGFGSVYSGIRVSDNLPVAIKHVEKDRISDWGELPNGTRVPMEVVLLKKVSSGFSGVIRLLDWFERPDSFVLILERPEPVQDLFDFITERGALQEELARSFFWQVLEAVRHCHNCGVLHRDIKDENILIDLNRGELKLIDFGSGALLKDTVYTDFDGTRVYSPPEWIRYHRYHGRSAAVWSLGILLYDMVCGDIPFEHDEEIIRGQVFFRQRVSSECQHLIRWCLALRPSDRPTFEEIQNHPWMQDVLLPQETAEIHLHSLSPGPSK
Method in brief: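 Mouse Ba/F3 pro-B cells were retrovirally transduced with human PIM1 so that their proliferation depends on PIM1. Cells were treated with compound at 1–10000 nM final for 72 h, then read by CCK-8 (OD450−OD650). Inhibition was set against DMSO (0%) and no-cell blank (100%), and IC50 was obtained by two-parameter logistic regression.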

[3] = target: PIM2 transgenic cells (Ba/F3) (Homo sapiens, UniProt Q9P1W9); assay: Proliferation inhibitory effect on PIM2 transgenic cells; type: cell-based, mouse; conditions: proliferation inhibition, 72 hours, Cell Counting Kit-8, read-out: PIM2 IC50
PIM2 transgenic cells (Ba/F3), sequence (Q9P1W9 whole entry, stated change not applied): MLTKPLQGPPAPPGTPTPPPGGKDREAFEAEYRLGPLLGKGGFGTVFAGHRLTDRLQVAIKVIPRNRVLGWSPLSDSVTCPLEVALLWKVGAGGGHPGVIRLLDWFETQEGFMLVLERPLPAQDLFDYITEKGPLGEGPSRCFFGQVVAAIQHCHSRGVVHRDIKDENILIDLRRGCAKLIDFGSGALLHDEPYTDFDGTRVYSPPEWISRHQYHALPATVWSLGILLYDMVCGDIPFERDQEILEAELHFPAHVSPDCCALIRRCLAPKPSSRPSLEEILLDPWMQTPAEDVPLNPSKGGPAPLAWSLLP
Excerpt: (§1) Human PIM1, 2, and 3 genes were inserted into the multi-cloning sites of retrovirus expression vectors pMYs-IRES-GFP, respectively, to prepare gene transfer vectors. Then, each gene transfer vector was introduced into packaging cells PLAT-E derived from a human fetal kidney cell line in the logarithmic growth phase, using a transfection reagent (FuGENE6, Promega Corporation). Since the culture supernatant of PLAT-E after gene transfer contained virus particles for gene transfer, the culture supernatant was collected and used as a medium for gene transfer. The medium for gene transfer was added to a plate coated with RetroNectin, and the plate was incubated to attach the virus particles to the plate. Then, a mouse pro-B cell line Ba/F3 in the logarithmic growth phase was seeded on the plate and infected with the virus to prepare PIM1, 2, or 3 transgenic cells that proliferate in a PIM 1, 2, or 3-dependent manner. The expression of PIM1, 2, or 3 protein in each cell was confirmed by Western blotting.
(§2) Each test substance was prepared to 10 mM with dimethylsulfoxide (DMSO), and diluted with DMSO so as to have concentrations of 3000, 1000, 300, 100, 30, 10, 3, and 1 μM. Moreover, each dilution was further diluted 10-fold with distilled water to prepare a test substance solution.
(§3) PIM1, 2, 3-expressing cells were seeded on a 96-well plate, and each test substance solution prepared the next day was added such that final concentrations were 10000, 3000, 1000, 300, 100, 30, 10, 3, and 1 nM. 72 hours after the addition, 10 μL of Cell Counting Kit-8 (DOJINDO LABORATORIES) was added to each well. After incubation for 1 to 4 hours, absorbance OD450 at 450 nm was measured. In addition, absorption OD650 at 650 nm as a reference wavelength was measured.
(§4) OD450-OD650 for each condition was calculated, and then the inhibition rates when OD450-OD650 of negative control (DMSO only) and OD450-OD650 of Blank (without cells) were set to 0% and 100%, respectively, were calculated. Then, non-linear regression analysis was performed for logarithmic dose and inhibition rate using a two-parameter logistic model to estimate IC50 values.
(§5) For the compounds with the following Example numbers, in addition to the above proliferation inhibitory effect on PIM1 transgenic cells, the proliferation inhibitory effect on PIM2 transgenic cells and the proliferation inhibitory effect on PIM3 transgenic cells were calculated as IC50.

[4] = target: PIM3 transgenic cells (Ba/F3) (Homo sapiens, UniProt Q86V86); assay: Proliferation inhibitory effect on PIM3 transgenic cells; type: cell-based, mouse; conditions: proliferation inhibition, 72 hours, Cell Counting Kit-8, read-out: PIM3 IC50
Excerpt: as §1, §2, §3, §4, §5

[5] = system: graft-versus-host disease model CB6F1 mice; assay: Lymphocyte proliferation inhibitory effect using graft-versus-host disease model animals (splenomegaly formation); type: in vivo; conditions: Mus musculus, 240 h, oral, twice a day for 10 days, GVHD model CB6F1 mice, read-out: Inhibition rate (%) (splenomegaly formation); for inhibition in vivo at 3 mg/kg: single dose 3 mg/kg; for inhibition in vivo at 10 mg/kg: single dose 10 mg/kg
Method: BALB/c mice (8-week-aged female) were euthanized, and then the spleen was removed from each mouse. Then, hemolysis treatment was performed to isolate spleen cells. The obtained spleen cells were intravenously transplanted into CB6F1 mice (8-week-aged female), which are C57BL/6 and BALB/c F1 mice, to prepare a model, and splenomegaly was induced. For transplantation, spleen cells for 1.2 BALB/c mouse were used for one CB6F1 mouse.
Each test substance shown in Table 64 was weighed and dissolved in a 0.5% methyl cellulose solution, thereby preparing test substance solutions of 0.3 to 10 mg/mL.
A vehicle (0.5% methyl cellulose solution) or test substance was orally administered to each CB6F1 mouse after transplantation at a dose of 3 to 50 mg/kg in terms of body weight twice a day for 10 days from the day after transplantation. The mouse was euthanized on the 11th day from the start of administration, then the spleen was removed therefrom, and the wet weight of the spleen was measured. For each of CB6F1 mice that had not undergone transplantation as a control group, the wet weight of the spleen was also measured.
The splenomegaly formation inhibition rate when the spleen weights of the mice to which the vehicle was administered after transplantation and the mice on which transplantation had not been performed were 0% and 100%, respectively, was calculated.

[6] = target: T2, PIM2 serine/threonine kinase (Homo sapiens, UniProt Q9P1W9); assay: PIM2 serine/threonine kinase inhibitory effect; type: biochemical; conditions: PIM2 serine/threonine kinase activity; ATP 2 μM; 30° C., 30 minutes
T2 construct: purchased Carna Bioscience, Inc
T2 sequence (Q9P1W9 whole entry): as the sequence (Q9P1W9 whole entry, stated change not applied) above
Method: (§6) Each test substance was prepared to 10 mM with dimethylsulfoxide (DMSO), and further diluted with DMSO so as to have concentrations of 1000, 300, 100, 30, 10, 3, 1, 0.3, 0.1, 0.03, 0.01, and 0.001 μM. Moreover, each dilution was further diluted 33.3-fold with an assay buffer to prepare a test substance solution. The composition of the assay buffer was 50 mM HEPES (pH 7.0), 0.02% NaN3, 0.01% Bovine Serum Albumin, 0.1 mM Orthovanadate, 1 mM Dithiothreitol, and 5 mM MgCl2.
(§7) 5 μL of each test substance solution was added to 384-well plates (n=2), and then 2.5 μL of a substrate solution (substrate 3-biotin (Cisbio Bioassays SAS), final concentration in the reaction solution: 0.5 μM) and 2.5 μL of an ATP solution (in the cases of PIM1, 2, 3, the final concentrations in the reaction solutions were 40, 2, and 10 μM, respectively) were added, 5 μL of each of PIM1, 2, 3 serine/threonine kinase solutions (Carna Bioscience, Inc., the final concentrations in the reaction solutions were 0.15, 1.6, and 0.25 μg/ml, respectively) was finally added, and the mixture was reacted at 30° C. for 30 minutes. The test substance concentrations in the reaction solutions are 10000, 3000, 1000, 300, 100, 30, 10, 3, 1, 0.3, 0.1, and 0.01 nM.
(§8) Thereafter, 15 μL of each detection solution (62.5 nM Streptavidin-XL665 (Cisbio Bioassays SAS), […] STK antibody-Cryptate (Cisbio Bioassays SAS), 50 mM HEPES (pH 7.0), 0.8 M KF, 0.1% Bovine Serum Albumin, 20 mM ethylenediaminetetraacetic acid) was added to each well. After stirring, the mixture was reacted at 30° C. for 1 hour. Absorbance (OD620, OD665) at 620 and 665 nm was measured with a microplate reader (SpectraMax M5e, Molecular Devices, LLC).
(§9) Non-linear regression analysis was performed by an SAS system (SAS Institute Inc.) using the ratio (OD665/OD620) of the measured absorbance to calculate a test substance concentration (IC50) that inhibits PIM1 serine/threonine kinase activity by 50%.
(§10) For the compounds with the following Example numbers, in addition to the above PIM1 serine/threonine kinase activity (IC50), test substance concentrations (IC50) that inhibit PIM2 serine/threonine kinase activity and PIM3 serine/threonine kinase activity by 50% were calculated.

[7] = target: T3, PIM3 serine/threonine kinase (Homo sapiens, UniProt Q86V86); assay: PIM3 serine/threonine kinase inhibitory effect; type: biochemical; conditions: PIM3 serine/threonine kinase activity; ATP 10 μM; 30° C., 30 minutes
T3 construct: purchased Carna Bioscience, Inc
Method: as §6, §7, §8, §9, §10

[8] = system: graft-versus-host disease model CB6F1 mice; assay: Lymphocyte proliferation inhibitory effect using graft-versus-host disease model animals (splenomegaly formation); type: in vivo; conditions: Mus musculus, 240 h, single dose 100 mg/kg, oral, twice a day for 10 days, GVHD model CB6F1 mice, read-out: Inhibition rate (%) (splenomegaly formation)

T1 sequence (P11309 whole entry): as the sequence (P11309 whole entry, stated change not applied) above

Row | IC50 [1] | GI50 [2] | GI50 [3] | GI50 [4] | IC50 [6] | IC50 [7] | SMILES | inhibition in vivo at 3 mg/kg [5] | inhibition in vivo at 10 mg/kg [5] | inhibition in vivo at 25 mg/kg ([5]; single dose 25 mg/kg) | inhibition in vivo at 50 mg/kg ([5]; single dose 50 mg/kg) | inhibition in vivo at 100 mg/kg [8]
1 | 1.6 nM | 11 nM | 290 nM | 59 nM | – | – | C[C@H](Nc1cc(-c2n[nH]c(=O)o2)cc(F)c1C(F)(F)F)[C@H]1CCNC[C@H]1F [Example 223, 5-[3-fluoro-5-({(1S)-1-[(3S,4R)-3-fluoropiperidin-4-yl]ethyl}amino)-4-(trifluoromethyl)phenyl]-1,3,4-oxadiazol-2(3H)-one hydrochloride] | 34.1% | 36.8% | – | – | –
2 | 1.1 nM | 7.6 nM | 390 nM | 51 nM | – | – | CC[C@@H]1CNCC[C@@H]1[C@H](C)Nc1cc(-c2n[nH]c(=O)o2)cc(F)c1C(F)(F)F [Example 225, 5-[3-({(1S)-1-[(3S,4S)-3-ethylpiperidin-4-yl]ethyl}amino)-5-fluoro-4-(trifluoromethyl)phenyl]-1,3,4-oxadiazol-2(3H)-one] | 18.9% | 32.3% | – | – | –
3 | 0.8 nM | 7.1 nM | 510 nM | 35 nM | – | – | C[C@H](Nc1cc(-c2n[nH]c(=O)o2)cc(F)c1OC(F)(F)F)[C@H]1CCNC[C@H]1F [Example 224, 5-[3-fluoro-5-({(1S)-1-[(3S,4R)-3-fluoropiperidin-4-yl]ethyl}amino)-4-(trifluoromethoxy)phenyl]-1,3,4-oxadiazol-2(3H)-one] | 22.8% | 39.1% | – | – | –

The remaining lines, values behind:

Row | SMILES | IC50 [1] | GI50 [2] | GI50 [3] | GI50 [4] | IC50 [6] | IC50 [7] | inhibition in vivo at 3 mg/kg [5] | inhibition in vivo at 10 mg/kg [5] | inhibition in vivo at 25 mg/kg ([5]; single dose 25 mg/kg) | inhibition in vivo at 50 mg/kg ([5]; single dose 50 mg/kg) | inhibition in vivo at 100 mg/kg [8]
4 | C[C@@H]1CNCC[C@@H]1[C@H](C)Nc1cc(-c2n[nH]c(=O)o2)cc(F)c1OC(F)(F)F [Example 219, 5-[3-fluoro-5-({(1S)-1-[(3S,4S)-3-methylpiperidin-4-yl]ethyl}amino)-4-(trifluoromethoxy)phenyl]-1,3,4-oxadiazol-2(3H)-one] | 1.8 nM | 11 nM | 1100 nM | 40 nM | – | – | 27.7% | 33.8% | – | – | –
5 | C[C@H](Nc1cc(-c2n[nH]c(=O)o2)ccc1C(F)(F)F)C1CCNCC1 [Example 58, 5-[3-{[(1S)-1-(piperidin-4-yl)ethyl]amino}-4-(trifluoromethyl)phenyl]-1,3,4-oxadiazol-2(3H)-one hydrochloride] | 2 nM | 33 nM | 3600 nM | 570 nM | 18 nM | 16 nM | – | – | 19% | 41.6% | 39.8%

Reference: patent US20220024921A1, “1,3,4-OXADIAZOLONE COMPOUND AND PHARMACEUTICAL” (NIPPON SHINYAKU CO., LTD., priority 2018, published 2022)
